{
  "source": "patent US5597823A",
  "about": "“Tricyclic substituted hexahydrobenz [e]isoindole alpha-1 adrenergic antagonists” (priority 1995, dated 1997)",
  "molecular_target": "T1, α-1A adrenoceptor (dog prostate) (Canis lupus, UniProt A0A8I3NK63)",
  "T1 sequence (A0A8I3NK63 1-466)": "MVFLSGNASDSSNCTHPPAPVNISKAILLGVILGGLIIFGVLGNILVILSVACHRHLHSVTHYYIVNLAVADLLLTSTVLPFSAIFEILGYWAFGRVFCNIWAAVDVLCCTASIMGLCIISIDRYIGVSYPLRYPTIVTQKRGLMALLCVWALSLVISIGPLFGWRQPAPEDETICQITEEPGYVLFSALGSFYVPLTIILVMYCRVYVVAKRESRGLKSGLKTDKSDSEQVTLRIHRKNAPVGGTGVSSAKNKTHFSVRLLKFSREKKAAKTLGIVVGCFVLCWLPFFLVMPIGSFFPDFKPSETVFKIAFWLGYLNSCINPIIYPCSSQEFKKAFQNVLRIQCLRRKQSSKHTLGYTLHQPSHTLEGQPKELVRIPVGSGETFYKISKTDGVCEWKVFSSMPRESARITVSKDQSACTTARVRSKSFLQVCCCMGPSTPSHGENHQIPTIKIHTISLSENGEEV",
  "assay": "Functional antagonism: phenylephrine (PE)-induced contraction of canine prostate strips",
  "format": "cell-based",
  "conditions": "Table 2b; vs phenylephrine; Schild plot",
  "text": "Functional assays indicative of pharmacologically defined α-1 adrenoceptors were used to further characterize compounds. Inhibition of phenylephrine (PE)-induced contraction of canine prostate smooth muscle can be correlated with α-1A adrenoceptor activation. […] For each of these models, agonist dose response curves were repeated against increasing concentrations of test agent to derive a Schild plot [log ([…]) against log (molarity of test agent)] to determine the pA2.\nCanine prostate strips were used in vitro as previously described (Hieble, J. P., Boyce, A. J. and Caine, M., Fed. Proc., 45:2609-2614 (1986)), to determine antagonist potencies against phenylephrine-induced contractions.",
  "note": "Structures can show the parent of a compound that is named as a salt.",
  "data": [
    {"smiles": "CCCCn1c(=O)n(CCN2C[C@@H]3CCc4c(OC)cccc4[C@@H]3C2)c(=O)c2sc3nccnc3c21", "note": "[Example 101, hydrochloride]", "values": [
      {"measurement": "pA2 Dog Prostate [α-1A]", "result": 7.31}
    ]},
    {"smiles": "COc1cccc2c1CC[C@H]1CN(CCn3c(=O)[nH]c4sc5ccccc5c4c3=O)C[C@@H]21", "note": "(relative stereo) [Example 13, 3-[2-(cis-6-Methoxy-2,3,3a,4,5,9b-hexahydro-[1H]-benz[e]isoindol-1-yl)ethyl]-[1]benzothieno[2,3-d]pyrimidine-2,4(1H,3H)-dione hydrochloride]", "values": [
      {"measurement": "pA2 Dog Prostate [α-1A]", "result": 7.68}
    ]},
    {"smiles": "COCCn1c(=O)n(CCN2C[C@@H]3CCc4c(OC)cccc4[C@@H]3C2)c(=O)c2sc3nccnc3c21", "note": "[Example 104, 3-[2-(cis-(3aR,9bR)-6-Methoxy-2,3,3a,4,5,9b-hexahydro-[1H]-benz[e]isoindol-1-yl)ethyl]-1-(2-methoxyethyl)pyrazino[2',3':4,5]thieno[3,2-d]pyrimidine-2,4(1H,3H)-dione hydrochloride]", "values": [
      {"measurement": "pA2 Dog Prostate [α-1A]", "result": 9.74}
    ]},
    {"smiles": "COc1cccc2c1CC[C@H]1CN(CCn3c(C)nc4c(sc5ccccc54)c3=O)C[C@@H]21", "note": "(relative stereo) [Example 29, dihydrochloride]", "values": [
      {"measurement": "pA2 Dog Prostate [α-1A]", "result": 7.43}
    ]},
    {"smiles": "COc1cccc2c1CC[C@H]1CN(CCn3c(=O)[nH]c4c(sc5nc(-c6ccccc6)cnc54)c3=O)C[C@@H]21", "note": "[Example 91, hydrochloride]", "values": [
      {"measurement": "pA2 Dog Prostate [α-1A]", "result": 6.66}
    ]},
    {"smiles": "COc1cccc2c1CC[C@H]1CN(CCn3c(=O)[nH]c4c(sc5c(OC)ccnc54)c3=O)C[C@@H]21", "note": "[Example 65, dihydrochloride]", "values": [
      {"measurement": "pA2 Dog Prostate [α-1A]", "result": 8.75}
    ]},
    {"smiles": "COc1cccc2c1CC[C@H]1CN(CCn3cnc4c(sc5ncccc54)c3=O)C[C@@H]21", "note": "[Example 34, 3-[2-((3aR,9bR)-cis-6-Methoxy-2,3,3a,4,5,9b-hexahydro-[1H]-benz[e]isoindol-1-yl)ethyl]-pyrido[3',2':4,51thieno[3,2:d]pyrimidine-4(3H)-one dihydrochloride]", "values": [
      {"measurement": "pA2 Dog Prostate [α-1A]", "result": 9.15}
    ]},
    {"smiles": "CCc1cccc2c1CC[C@H]1CN(CCn3c(=O)[nH]c4c(sc5cccnc54)c3=O)C[C@@H]21", "note": "[Example 113, dihydrochloride]", "values": [
      {"measurement": "pA2 Dog Prostate [α-1A]", "result": 8.22}
    ]},
    {"smiles": "COc1cccc2c1CC[C@H]1CN(CCn3c(=O)[nH]c4c(sc5ccc(NC(C)=O)cc54)c3=O)C[C@@H]21", "note": "[Example 49, 3-[2-((3aR,9bR)-cis-6-Methoxy-2,3,3a,4,5,9b-hexahydro-[1H]-benz[e]isoindol-1-yl)ethyl]-[1]-8-acetamido-benzothieno[3,2-d]pyrimidine-2,4(1H,3H)-dione hydrochloride]", "values": [
      {"measurement": "pA2 Dog Prostate [α-1A]", "result": 7.84}
    ]},
    {"smiles": "COc1cccc2c1CC[C@H]1CN(CCn3c(=O)[nH]c4c(sc5ccc(C#N)cc54)c3=O)C[C@@H]21", "note": "[Example 43, 3-[2-((3aR,9bR)-cis-6-Methoxy-2,3,3a,4,5,9b-hexahydro-[1H]-benz[e]isoindol-1-yl)ethyl]-[1]-8-cyano-benzothieno[3,2-d]pyrimidine-2,4(1H,3H)-dione hydrochloride]", "values": [
      {"measurement": "pA2 Dog Prostate [α-1A]", "result": 8.44}
    ]},
    {"smiles": "COc1cccc2c1CC[C@H]1CN(CCn3c(=O)[nH]c4c(ccc5ncccc54)c3=O)C[C@@H]21", "note": "[Example 82, 3-[2-((3aR,9bR)cis-6-Methoxy-2,3,3a,4,5,9b-hexahydro-[1H]-benz[e]isoindol-1-yl)ethyl]-pyrido[2,3-h]quinazoline-2,4(1H,3H)-dione hydrochloride]", "values": [
      {"measurement": "pA2 Dog Prostate [α-1A]", "result": 9.09}
    ]}
  ]
}
